Laboratory results from ChEMBL document CHEMBL1135074, “Two neolignans from Perilla frutescens and their inhibition of nitric oxide synthase and tumor necrosis factor-alpha expression in murine macrophage cell line RAW 264.7” (Bioorg Med Chem Lett, 2002).
pIC50: −log10 of the molar value.

Experiments:
RAW = assay: Tested for the inhibition of nitric oxide syntheses in murine macrophage cell line RAW 264.7 at a concentration of 30 uM; type: cell-based
L929 = assay: Relative cytotoxicity measured as inhibition of LPS induced TNF alpha production in L929 cells at 10 uM; type: functional, Mus musculus; set-up: scale not given: the % may be the effect or the level left
[1] = Tested for the inhibition of nitric oxide syntheses in murine macrophage cell line RAW 264.7; type: cell-based
RAW264.7 = assay: Tested for the inhibition of NO production in RAW 264.7 cells; type: functional, Mus musculus

SMILES | inhibition (RAW) [%] | Activity (L929) [%] | pIC50 [1] | Inhibition (RAW264.7) [%]
COc1cc(OC)c([C@@H]2[C@@H](C)[C@H](C)[C@H]2c2cc(OC)c(OC)cc2OC)cc1OC | 17 | 26 | 5.23 | 
COc1cc(OC)c([C@@H]2[C@H](C)[C@@H](C)[C@H]2c2cc(OC)c(OC)cc2OC)cc1OC [MAGNOSALIN] |  | 84 | 4.27 | 
N=C(N)NN [PIMAGEDINE] |  |  |  | 79
